We go through ten compounds from ChEMBL document CHEMBL3826923, “Synthesis and biological activity of novel ester derivatives of N(3)-(4-metoxyfumaroyl)-(S)-2,3-diaminopropanoic acid containing amide and keto function as inhibitors of glucosamine-6-phosphate synthase” (Bioorg Med Chem Lett, 2016).

In experiment [1] the test system is Candida albicans. As to the kind of experiment: Antimicrobial activity against Candida albicans ATCC 10231 after 48 hrs by serial two fold dilution method. Type of experiment: functional. To be noted: ATCC 10231, 48 h.
Experiment [2] relates to Nakaseomyces glabratus. As to the kind of experiment: Antimicrobial activity against Candida glabrata DSM 11226 after 48 hrs by serial two fold dilution method. Type of experiment: functional. To be noted: DSM 11226, 48 h.
The subject of experiment [3] is Escherichia coli. As to the kind of experiment: Antimicrobial activity against Escherichia coli PCM 2560 after 24 hrs by serial two fold dilution method. The experiment is classed as functional. To be noted: PCM 2560, 24 h.
Experiment [4] in a line: Inhibition of Candida albicans glucosamine-6-phosphate synthase expressed in Escherichia coli using D-fructose-6-phosphate as substrate after 30 mins.
The subject of experiment [5] is Staphylococcus aureus. Kind of experiment: Antimicrobial activity against Staphylococcus aureus ATCC 29213 after 24 hrs by serial two fold dilution method. Type of experiment: functional. To be noted: ATCC 29213, 24 h.

Usually MIC80 stands for the lowest concentration that inhibits either 80% of growth or 80% of the strains tested, depending on the study. A high value points to lower susceptibility. A word on the IC50: it is the point on the concentration scale where inhibition reaches its midpoint. Read a low IC50 as greater potency.

Where only a bound is given, the exact number is not on record here.

As to `COC(=O)/C=C/C(=O)NC[C@H](N)C(=O)O`, the MIC80 in experiment [1], in experiment [2], in experiment [3] and in experiment [5] was above 1020 µg/mL each time. Further, the IC50 in experiment [4] turned out to be 4.03 µM.
Turning to `COC(=O)/C=C/C(=O)NC[C@H](N)C(=O)O[C@@H](C)C(=O)N(C)C.Cl`, the MIC80 is 256 µg/mL in experiment [1], above 1020 µg/mL in experiment [2], above 1020 µg/mL in experiment [3] and above 1020 µg/mL in experiment [5]. Further, the IC50 in experiment [4] is above 5000 µM.
Consider `COC(=O)/C=C/C(=O)NC[C@H](N)C(=O)OCC(N)=O.Cl`, for which the MIC80 is 128 µg/mL in experiment [1], above 1020 µg/mL in experiment [2], above 1020 µg/mL in experiment [3] and above 1020 µg/mL in experiment [5]. For the same compound, in experiment [4], the half-inhibitory concentration (IC50) is 202 µM.
As for `COC(=O)/C=C/C(=O)NC[C@H](N)C(=O)OCC(C)=O.Cl`, the MIC80 is 0.25 µg/mL in experiment [1], 512 µg/mL in experiment [2], above 1020 µg/mL in experiment [3] and above 1020 µg/mL in experiment [5]. For the same compound, it took 5.08 µM to reach half-maximal inhibition in experiment [4] (IC50).
Consider `COC(=O)/C=C/C(=O)NC[C@H](N)C(=O)OC(C)C(C)=O.Cl` (stereo not given in full), for which the MIC80 in experiment [1] was 0.5 µg/mL; in experiment [2] it was 512 µg/mL; in experiment [3], above 1020 µg/mL; in experiment [5], above 1020 µg/mL. Besides, in experiment [4], the IC50 worked out at 4.91 µM.
As to `CNC(=O)COC(=O)[C@@H](N)CNC(=O)/C=C/C(=O)OC.Cl`, the MIC80 in experiment [1] was 1 µg/mL; in experiment [2] it was above 1020 µg/mL; in experiment [3] it was above 1020 µg/mL; in experiment [5] it was 1020 µg/mL. In experiment [4], this compound displayed an IC50 of 27 µM.
Take `COC(=O)/C=C/C(=O)NC[C@H](N)C(=O)OCC(=O)N(C)C.Cl`: the MIC80 in experiment [1] was 2 µg/mL; in experiment [2], above 1020 µg/mL; in experiment [3], above 1020 µg/mL; in experiment [5], 512 µg/mL. In experiment [4], this compound registered an IC50 of 66.6 µM.
With `COC(=O)/C=C/C(=O)NC[C@H](N)C(=O)O[C@@H](C)C(N)=O.Cl`, the MIC80 is 8 µg/mL in experiment [1], above 1020 µg/mL in experiment [2], above 1020 µg/mL in experiment [3] and above 1020 µg/mL in experiment [5]. This compound had an IC50 in experiment [4] of 82.1 µM.
Consider `COC(=O)/C=C/C(=O)NC[C@H](N)C(=O)OCC(=O)C(C)(C)C.Cl`, for which the MIC80 in experiment [1] is 0.5 µg/mL; in experiment [2], 512 µg/mL; in experiment [3], above 1020 µg/mL; in experiment [5], above 1020 µg/mL. In addition, the IC50 in experiment [4] is 5.17 µM.
Consider `CNC(=O)[C@H](C)OC(=O)[C@@H](N)CNC(=O)/C=C/C(=O)OC.Cl`, for which the MIC80 is 16 µg/mL in experiment [1], above 1020 µg/mL in experiment [2], above 1020 µg/mL in experiment [3] and above 1020 µg/mL in experiment [5]. It took 199 µM to reach half-maximal inhibition in experiment [4] (IC50).
